Assay results published in patent US8613914B2, “Peptidomimetic sulfamide compounds and antiviral uses thereof” (Novartis AG, priority 2009, dated 2013).

biological target: HCV NS3-4A serine protease (full-length NS3-4A protein) (Hepatitis C virus genotype 1a (isolate 1) (HCV), UniProt P26664); experiment: HCV NS3-4A protease assay; format: biochemical, HCV genotype 1a; conditions: strain HCV-1, fluorogenic peptide substrate, read-out: Protease assay Ex. 12 IC50
Method: The inhibitory activity of certain compounds of Table A against HCV NS3-4A serine protease is determined in a homogenous assay using the full-length NS3-4A protein (genotype 1a, strain HCV-1) and a commercially available internally-quenched fluorogenic peptide substrate as described by Taliani, M., et al. 1996 Anal. Biochem. 240:60-67, which is incorporated by reference in its entirety.

Sequence of HCV NS3-4A serine protease (full-length NS3-4A protein) (P26664 1027-1657): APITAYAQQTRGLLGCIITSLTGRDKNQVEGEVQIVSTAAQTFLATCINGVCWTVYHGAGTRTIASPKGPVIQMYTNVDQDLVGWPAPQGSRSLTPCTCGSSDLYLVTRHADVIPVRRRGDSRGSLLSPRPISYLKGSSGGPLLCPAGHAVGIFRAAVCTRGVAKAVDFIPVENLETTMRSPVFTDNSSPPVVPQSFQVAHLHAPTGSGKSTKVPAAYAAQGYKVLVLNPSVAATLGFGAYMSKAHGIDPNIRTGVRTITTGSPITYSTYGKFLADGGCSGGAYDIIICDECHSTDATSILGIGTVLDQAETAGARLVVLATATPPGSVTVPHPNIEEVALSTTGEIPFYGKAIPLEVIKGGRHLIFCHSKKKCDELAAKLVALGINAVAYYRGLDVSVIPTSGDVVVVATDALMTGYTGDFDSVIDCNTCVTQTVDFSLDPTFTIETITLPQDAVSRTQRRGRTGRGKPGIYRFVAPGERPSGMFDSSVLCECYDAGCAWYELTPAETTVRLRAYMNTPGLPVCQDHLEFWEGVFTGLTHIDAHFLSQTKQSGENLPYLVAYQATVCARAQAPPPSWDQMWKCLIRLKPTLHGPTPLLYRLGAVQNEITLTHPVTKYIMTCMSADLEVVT
Sequence of HCV NS3-4A serine protease (full-length NS3-4A protein) (P26664 1658-1711 partner): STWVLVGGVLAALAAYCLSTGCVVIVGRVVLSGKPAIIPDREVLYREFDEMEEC

| Structure (SMILES) | IC50 [nM] |
| --- | --- |
| C=C[C@@H]1C[C@]1(NC(=O)[C@@H]1C[C@@]2(CN1C(=O)[C@@H](NC(=O)[C@@H](NC(=O)[C@@H]1CCCCN1C(C)C)C1CCCCC1)C(C)(C)C)C(C)(C)C21CCC1)C(=O)NS(=O)(=O)N(C)OC [Compound 55, (5R,8S)-7-[(2S)-2-{[(2S)-2-cyclohexyl-2-({[(2S)-1-isopropylpiperidin-2-yl]carbonyl}amino)acetyl]amino}-3,3-dimethylbutanoyl]-N-[(1R,2S)-1-({[methoxy(methyl)amino]sulfonyl}carbamoyl)-2-vinylcyclopropyl]-10,10-dimethyl-7-azadispiro[3.0.4.1]decane-8-carboxamide] | 1.4 |
| C=C[C@@H]1C[C@]1(NC(=O)[C@@H]1C[C@@]2(CN1C(=O)[C@@H](NC(=O)[C@@H](NC(=O)[C@@H]1CCCCN1C(C)C)C1CCCCC1)C(C)(C)C)C(C)(C)C21CCC1)C(=O)NS(=O)(=O)N(CC)CCF [Compound 156, (5R,8S)-7-[(2S)-2-{[(2S)-2-cyclohexyl-2-({[(2S)-1-isopropylpiperidin-2-yl]carbonyl}amino)acetyl]amino}-3,3-dimethylbutanoyl]-N-[(1R,2S)-1-({[ethyl(2-fluoroethyl)amino]sulfonyl}carbamoyl)-2-vinylcyclopropyl]-10,10-dimethyl-7-azadispiro[3.0.4.1]decane-8-carboxamide] | 1.3 |
| C=C[C@@H]1C[C@]1(NC(=O)[C@@H]1C[C@@]2(CN1C(=O)[C@@H](NC(=O)[C@@H](NC(=O)c1cnccn1)C1CCCCC1)C(C)(C)C)C(C)(C)C21CCC1)C(=O)NS(=O)(=O)NC1CC1 [Compound 165, (5R,8S)-7-[(2S)-2-({(2S)-2-cyclohexyl-2-[(pyrazin-2-ylcarbonyl)amino]acetyl}amino)-3,3-dimethylbutanoyl]-N-[(1R,2S)-1-{[(cyclopropylamino)sulfonyl]carbamoyl}-2-vinylcyclopropyl]-10,10-dimethyl-7-azadispiro[3.0.4.1]decane-8-carboxamide] | 6.2 |
| C=C[C@@H]1C[C@]1(NC(=O)[C@@H]1C[C@@]2(CN1C(=O)[C@@H](NC(=O)[C@@H](NC(=O)[C@@H]1CCCN1C(C)C)C1CCCCC1)C(C)(C)C)C(C)(C)C21CCC1)C(=O)NS(=O)(=O)N1CCCC1 [Compound 15, (5R,8S)-7-[(2S)-2-{[(2S)-2-cyclohexyl-2-({[(2S)-1-isopropylpyrrolidin-2-yl]carbonyl}amino)acetyl]amino}-3,3-dimethylbutanoyl]-10,10-dimethyl-N-{(1R,2S)-1-[(pyrrolidin-1-ylsulfonyl)carbamoyl]-2-vinylcyclopropyl}-7-azadispiro[3.0.4.1]decane-8-carboxamide] | 2 |
| C=C[C@@H]1C[C@]1(NC(=O)[C@@H]1C[C@@]2(CN1C(=O)[C@@H](NC(=O)[C@@H](NC(=O)c1ccc3[nH]ccc3c1)C1CCCCC1)C(C)(C)C)C(C)(C)C21CCC1)C(=O)NS(=O)(=O)N1CCCC1 [Compound 190, (5R,8S)-7-[(2S)-2-({cyclohexyl[(1H-indol-5-ylcarbonyl)amino]acetyl}amino)-3,3-dimethylbutanoyl]-10,10-dimethyl-N-{(1R,2S)-1-[(pyrrolidin-1-ylsulfonyl)carbamoyl]-2-vinylcyclopropyl}-7-azadispiro[3.0.4.1]decane-8-carboxamide] | 20 |
| C=C[C@@H]1C[C@]1(NC(=O)[C@@H]1C[C@@]2(CN1C(=O)[C@@H](NC(=O)[C@@H](NC(=O)[C@@H]1CCCCN1C(C)C)C1CCCCC1)C(C)(C)C)C(C)(C)C21CCC1)C(=O)NS(=O)(=O)N1CCCC1 [Compound 13, (5R,8S)-7-[(2S)-2-{[(2S)-2-cyclohexyl-2-({[(2S)-1-isopropylpiperidin-2-yl]carbonyl}amino)acetyl]amino}-3,3-dimethylbutanoyl]-10,10-dimethyl-N-{(1R,2S)-1-[(pyrrolidin-1-ylsulfonyl)carbamoyl]-2-vinylcyclopropyl}-7-azadispiro[3.0.4.1]decane-8-carboxamide] | 3 |
